# Test system: IL-1β production in PMA-differentiated THP-1 cells
# Experiment: IL-1β production in PMA-differentiated THP-1 cells stimulated with gramicidin (hTHP-1 assay, 2% fetal bovine serum; Procedures 1-3)
# Assay type: cell-based, human
# Details: Homo sapiens, THP-1, hTHP-1 assay containing 2% fetal bovine serum, Table B2, class symbols; read-out: IC50
# Method: The following protocol is suitable for testing the activity of the compounds disclosed herein.
# Procedure 1: IL-1β Production in PMA-Differentiated THP-1 Cells Stimulated with Gramicidin.
# THP-1 cells were purchased from the American Type Culture Collection and sub-cultured according to instructions from the supplier. Cells were cultured in complete RPMI 1640 (containing 10% heat inactivated FBS, penicillin (100 units/ml) and streptomycin (100 μg/ml)), and maintained in log phase prior to experimental setup. Prior to the experiment, compounds were dissolved in dimethyl sulfoxide (DMSO) to generate a 30 mM stock. The compound stock was first pre-diluted in DMSO to 3, 0.34, 0.042 and 0.0083 mM intermediate concentrations and subsequently spotted using Echo550 liquid handler into an empty 384-well assay plate to achieve desired final concentration (e.g. 100, 33, 11, 3.7, 1.2, 0.41, 0.14, 0.046, 0.015, 0.0051, 0.0017 μM). DMSO was backfilled in the plate to achieve a final DMSO assay concentration of 0.37%. The plate was then sealed and stored at room temperature until required.
# THP-1 cells were treated with PMA (Phorbol 12-myristate 13-acetate) (20 ng/ml) for 16-18 hours. On the day of the experiment the media was removed and adherent cells were detached with trypsin for 5 minutes. Cells were then harvested, washed with complete RPMI 1640, spun down, and resuspended in RPMI 1640 (containing 2% heat inactivated FBS, penicillin (100 units/ml) and streptomycin (100 μg/ml). The cells were plated in the 384-well assay plate containing the spotted compounds at a density of 50,000 cells/well (final assay volume 50 μl). Cells were incubated with compounds for 1 hour and then stimulated with gramicidin (5 μM) (Enzo) for 2 hours. Plates were then centrifuged at 340 g for 5 min. Cell free supernatant (40 μL) was collected using a 96-channel PlateMaster (Gilson) and the production of IL-1β was evaluated by HTRF (cisbio). The plates were incubated for 18 h at 4° C. and read using the preset HTRF program (donor emission at 620 nm, acceptor emission at 668 nm) of the SpectraMax i3x spectrophotometer (Molecular Devices, software SoftMax 6). A vehicle only control and a dose titration of CRID3 (100-0.0017 μM) were run concurrently with each experiment.
# Procedure 2: IL-1β Production in PMA-Differentiated THP-1 Cells Stimulated with Gramicidin.
# THP-1 cells were purchased from the American Type Culture Collection and sub-cultured according to instructions from the supplier. Prior to experiments, cells were cultured in complete RPMI 1640 (containing 10% heat inactivated FBS, penicillin (100 units/ml) and streptomycin (100 μg/ml)), and maintained in log phase prior to experimental setup. Prior to the experiment THP-1 were treated with PMA (Phorbol 12-myristate 13-acetate) (20 ng/ml) for 16-18 hours. Compounds were dissolved in dimethyl sulfoxide (DMSO) to generate a 30 mM stock. On the day of the experiment the media was removed and adherent cells were detached with trypsin for 5 minutes. Cells were then harvested, washed with complete RPMI 1640, spun down, resuspended in RPMI 1640 (containing 2% heat inactivated FBS, penicillin (100 units/ml) and streptomycin (100 μg/ml) . The cells were plated in a 384-well plate at a density of 50,000 cells/well (final assay volume 50 μl). Compounds were first dissolved in assay medium to obtain a 5× top concentration of 500 μM. 10 step dilutions (1:3) were then undertaken in assay medium containing 1.67% DMSO. 5× compound solutions were added to the culture medium to achieve desired final concentration (e.g. 100, 33, 11, 3.7, 1.2, 0.41, 0.14, 0.046, 0.015, 0.0051, 0.0017 μM). Final DMSO concentration was at 0.37%. Cells were incubated with compounds for 1 hour and then stimulated with gramicidin (5 μM) (Enzo) for 2 hours. Plates were then centrifuged at 340 g for 5 min. Cell free supernatant (40 μL) was collected using a 96-channel PlateMaster (Gilson) and the production of IL-1β was evaluated by HTRF (cisbio). […]
row,Compound,IC50
1,COCCN(C)Cc1cccc(S(N)(=O)=NC(=O)Nc2c3c(cc4c2CCC4)CCC3)c1 (stereo not drawn) [Example 504],5000 to 30000 nM
2,"N[S@@](=O)(=NC(=O)Nc1c2c(cc3c1CCC3)CCC2)c1ccc(CNC2CCC2)cc1 [Example 705, (R)-4-((cyclobutylamino)methyl)-N′-((1,2,3,5,6,7-hexahydro-s-indacen-4-yl)carbamoyl)-benzenesulfonimidamide]",1000 to 5000 nM
3,NS(=O)(=NC(=O)Nc1c2c(cc3c1CCC3)CCC2)c1ccc(-c2ccccc2)s1 (stereo not drawn) [Compound 917],5000 to 30000 nM
4,"CC(C)(O)c1cnc([S@](N)(=O)=NC(=O)Nc2c3c(cc4c2CCC4O)CCC3)s1 (stereo partly drawn) [Example 512, (R)-N′-((1-hydroxy-1,2,3,5,6,7-hexahydro-s-indacen-4-yl)carbamoyl)-5-(2-hydroxypropan-2-yl)thiazole-2-sulfonimidamide]",1000 to 5000 nM
5,"CN(C)C(c1ccc(S(N)(=O)=NC(=O)Nc2c3c(cc4c2CCC4)CCC3)cc1)C(F)(F)F (single isomer, unassigned) [Example 664]",200 to 1000 nM

# Same assay, conditions: Table B1; hTHP-1 assay containing 2% fetal bovine serum, gramicidin stimulation, IL-1β readout; read-out: hTHP-1 IC50 (average)
row,Compound,IC50
1,"CC(C)(O)c1ncc(S(N)(=O)=NC(=O)Nc2c3c(cc4c2CC4)CCC3)s1 [Example 225, (R)- and (S)-2-(2-hydroxypropan-2-yl)-N′-((2,4,5,6-tetrahydro-1H-cyclobuta[f]inden-3-yl)carbamoyl)thiazole-5-sulfonimidamide]",1000 to 5000 nM

# Same assay, conditions: Table B3; hTHP-1 assay containing 2% fetal bovine serum, gramicidin stimulation, IL-1β readout; read-out: hTHP-1 IC50
row,Compound,IC50
1,"CNCc1csc(S(N)(=O)=NC(=O)Nc2c3c(cc4c2CC4)CCC3)c1F (single isomer, unassigned) [Example 870, (R) or (S) -3-fluoro-4-((methylamino)methyl)-N′-((2,4,5,6-tetrahydro-1H-cyclobuta[f]inden-3-yl)carbamoyl)thiophene-2-sulfonimidamide]",40 to 200 nM
2,"CC(C)c1cnc(S(N)(=O)=NC(=O)Nc2c3c(cc4c2CCC4)CCC3)c(F)c1 (single isomer, unassigned) [Example 811, (R) or (S)-3-fluoro-N′-((1,2,3,5,6,7-hexahydro-s-indacen-4-yl)carbamoyl)-5-isopropylpyridine-2-sulfonimidamide]",200 to 1000 nM
3,"NS(=O)(=NC(=O)Nc1c2c(cc3c1CC3)CCC2)c1sc2c(c1F)CNCC2 (single isomer, unassigned) [Example 833, (R) or (S)-3-fluoro-N′-((2,4,5,6-tetrahydro-1H-cyclobuta[f]inden-3-yl)carbamoyl)-4,5,6,7-tetrahydrothieno[3,2-c]pyridine-2-sulfonimidamide]",8 to 40 nM
4,"COC1CCc2c(csc2S(N)(=O)=NC(=O)Nc2c3c(cc4c2CCC4)CCC3)C1 (single isomer, unassigned) [Example 854, (S, S) or (R, S)-N′-((1,2,3,5,6,7-hexahydro-s-indacen-4-yl)carbamoyl)-5-methoxy-4,5,6,7-tetrahydrobenzo[c]thiophene-1-sulfonimidamide]",5000 to 30000 nM
5,"NS(=O)(=NC(=O)Nc1c2c(cc3c1CC3)CCC2)c1cc2c(s1)CCN[C@H]2C(F)F (single isomer, unassigned) [Example 876, (R or S,4R)-4-(difluoromethyl)-N′-((2,4,5,6-tetrahydro-1H-cyclobuta[f]inden-3-yl)carbamoyl)-4,5,6,7-tetrahydrothieno[3,2-c]pyridine-2-sulfonimidamide]",40 to 200 nM
6,"NS(=O)(=NC(=O)Nc1c2c(cc3c1CC3)CCC2)c1cc2c(s1)CCN(CC(F)F)C2 (single isomer, unassigned) [Example 873, (S) or (R) -5-(2,2-difluoroethyl)-N′-((2,4,5,6-tetrahydro-1H-cyclobuta[f]inden-3-yl)carbamoyl)-4,5,6,7-tetrahydrothieno[3,2-c]pyridine-2-sulfonimidamide]",> 30000 nM
7,"CN(C)CC(C)(C)c1ccc(S(N)(=O)=NC(=O)Nc2c3c(cc4c2CCC4)CCC3)cc1 (single isomer, unassigned) [Example 810, (S) or (R)-4-(1-(dimethylamino)-2-methylpropan-2-yl)-N′-((1,2,3,5,6,7-hcxahydro-s-indaccn-4-yl)carbamoyl)benzenesulfonimidamide]",5000 to 30000 nM

# Same assay, conditions: hTHP-1 assay containing 2% fetal bovine serum, Table B2, class symbols; read-out: IC50
row,Compound,IC50
1,"N[S@@](=O)(=NC(=O)Nc1c2c(cc3c1CCC3)CCC2)c1ccc(C(F)F)nc1 (single isomer, unassigned) [Example 595, (R) or (S)-6-(difluoromethyl)-N′-((1,2,3,5,6,7-hexahydroxy-indacen-4-yl)carbamovl)pyridine-3-sulfonimidamide]",1000 to 5000 nM
2,"Cc1c(C2CC2)cc2c(c1NC(=O)N=S(N)(=O)c1sc(C(C)(C)O)cc1F)CCC2 (single isomer, unassigned) [Example 685, (R) or (S)-N′-((6-cyclopropyl-5-methyl-2,3-dihydro-1H-inden-4-yl)carbamoyl)-3-fluoro-5-(2-hydroxypropan-2-yl)thiophene-2-sulfonimidamide]",8 to 40 nM
3,"CN(C)[C@H](c1ccc([S@](N)(=O)=NC(=O)Nc2c3c(cc4c2CCC4)CCC3)cc1)C(F)(F)F (single isomer, unassigned) [Example 668, (R,R) or (S,R)-4-(1-(dimethylamino)-2,2,2-trifluoroethyl)-N′-((1,2,3,5,6,7-hexahydro-s-indacen-4-yl)carbamoyl) benzenesulfonimidamide]",1000 to 5000 nM
4,"CN(C)Cc1ccc([S@](N)(=O)=NC(=O)Nc2c3c(cc4c2CCC4)CCC3)cc1F (single isomer, unassigned) [Example 605, (R) or (S)-4-((dimethylamino)methyl)-3-fluoro-N′-((1,2,3,5,6,7-hexahydro-s-indacen-4-yl)carbamoyl) benzenesulfonimidamide]",200 to 1000 nM
5,"COCc1nc(C(C)(C)O)sc1S(N)(=O)=NC(=O)Nc1c2c(c(C#N)c3c1CCC3)CCC2 (single isomer, unassigned) [Example 533, (R) or (S)-N′-((8-cyano-1,2,3,5,6,7-hexahydro-s-indacen-4-yl)carbamoyl)-2-(2-hydroxypropan-2-yl)-4-(methoxymethyl) thiazole-5-sulfonimidamide]",200 to 1000 nM
6,"CN[C@H]1COc2c(S(N)(=O)=NC(=O)Nc3c4c(cc5c3CCC5)CCC4)cnn2C1 (single isomer, unassigned) [Example 697, (R) or (S)-(6R)-N′-((1,2,3,5,6,7-hexahydro-s-indacen-4-yl)carbamoyl)-6-(methylamino)-6,7-dihydro-5H-pyrazolo[5,1-b][1,3]oxazine-3-sulfonimidamide]",40 to 200 nM

# Same assay, conditions: hTHP-1 assay containing 2% fetal bovine serum, Table B2, given as bound; read-out: IC50
row,Compound,IC50
1,"NS(=O)(=NC(=O)Nc1c2c(cc3c1CCC3)CCC2)c1ccc(C2CCCC2)nc1 (single isomer, unassigned) [Example 587, (R) or (S)-6-cyclopentyl-N′-((1,2,3,5,6,7-hexahydro-s-indacen-4-yl)carbamoyl)pyridine-3-sulfonimidamide]",> 30000 nM
2,"CN(C)C(c1ccc(S(N)(=O)=NC(=O)Nc2c3c(cc4c2CCC4)CCC3)cc1)C(F)(F)F (single isomer, unassigned) [Example 665, (S,S) or (R,S)-4-(1-(dimethylamino)-2,2,2-trifluoroethyl)-N′-((1,2,3,5,6,7-hexahydro-s-indacen-4-yl)carbamoyl) benzenesulfonimidamide]",> 30000 nM

# Reference: patent US20230051589A1, “COMPOUNDS AND COMPOSITIONS FOR TREATING CONDITIONS ASSOCIATED WITH NLRP ACTIVITY” (Novartis AG, priority 2018, published 2023)
